Measurements as given in patent US11123398B2, “Chemotherapeutic combinations of cationic antimicrobial peptides and chemotherapeutics” (LYTIX BIOPHARMA AS, priority 2014, dated 2021).
Like-named read-outs stand apart in the source and are kept apart here. Non-standard residues stand in square brackets, D forms with d. Residues, ends and D or L forms follow the SMILES beside them. Dip = N[C@H](C(=O)O)C(c1ccccc1)c1ccccc1

What was measured:
MCF-7/mdr = assay: MTS cytotoxicity assay, MCF-7/mdr; assay type: cell-based, human; conditions: IC50 resistant / IC50 sensitive line; doxorubicin resistance
Method: Tumor cells were plated in 96-well flat-bottom microtitration plates (Nunc, Dutscher, Brumath, France) and incubated at 37° C. for 24 hours before treatment in 190 μl of drug-free culture medium supplemented or not with 10% FBS for adherent or suspension growing cell lines, respectively.
The adherent cell lines were washed once with 200 μl FBS-free culture medium before treatment. Tumor cells were incubated for 4 hours with 10 concentrations of compounds in ¼ dilution step with a top dose of 400 μM (range 4×10^−4 to 4×10^−10 M), with 1% (final concentration) Triton X-100 as positive control and FBS-free culture medium as negative control. The cells (190 μl) were incubated in a 200 μl final volume of FBS-free culture medium containing test substances at 37° C. under 5% CO2.
Three independent experiments were performed, each concentration being tested in quadruplicate. Control cells were treated with vehicle alone. At the end of treatments, the cytotoxic activity was evaluated by a MTS assay (see § 3.3.).
Like MTT, MTS is bioreduced by cells into a formazan product that is directly soluble in culture medium without processing, unlike MTT.
At the end of the cells treatment, 40 μl of a 0.22 μm filtered freshly combined solution of MTS (20 ml at 2 mg/ml, Ref G1111, Batch 235897, Exp March 2009, Promega, Charbonnières, France) and PMS (1 ml at 0.92 mg/ml, Ref P9625, Batch 065K0961, Sigma) in Dulbecco's Phosphate Buffered Saline (DPBS, Ref 17-513Q, Batch 6MB0152, Cambrex), were added in each well. Culture plates were incubated for 2 h at 37° C. Absorbency (OD) were measured at 490 nm in each well using VICTOR^3™ 1420 multilabeled counter (Wallac, PerkinElmer, Courtaboeuf, France).
IC50: drug concentration to obtain a 50% inhibition of cell proliferation.
The dose-response curves were plotted using XLFit 3 (IDBS, United Kingdom). The IC50 determination values were calculated using the XLFit 3 software from semi-log curves. Individual IC50 determination values as well as mean and SD values were generated.
Resistance index was calculated using the following formula: […]
Resistance index was calculated for each compound for each couple of sensitive and resistant cell lines. Individual resistance index was calculated when IC50 values of both sensitive and corresponding resistant cell lines were determined within same experiment. In addition, resistance index was also calculated ratio of mean IC50 values obtained during three independent experiments.

[1] = tested on: murine A20 B-cell lymphoma; assay: Murine A20 B-cell lymphoma tumours in mice, dose levels; assay type: in vivo; conditions: for Mean tumour size at day 1: prior to start of treatment
Method: The administration took place by intratumoural injection of LTX-315 dissolved in sterile saline.
The mice were divided into four groups (see Table 8 below for details). The intratumoural treatment was initiated when the tumours had reached the desired size of approximately 5 mm in diameter (minimum of 20 mm^2).
Three dose levels of LTX-315, 1 mg (Group 1), 0.5 mg (Group 2) and 0.25 mg (Group 3) per injection, were investigated. The volume was 50 μl for all injections. LTX-315 was dissolved in sterile 0.9% NaCl water solution. This vehicle was used as control (Group 4). All four groups received three injections.
A caliper was used for tumour size measurements and weighing and physical examination were used as health control.

A375 cells = assay: MTT viability assay, A375 melanoma; assay type: cell-based, human; conditions: read-out: IC-50, melanoma cells, MTT
Method: The cytotoxic effect of LTX-315 was investigated using the colorimetric MTT viability assay as described in Eliassen et al. (2002), 22(5): pp 2703-10. The A375 cells were seeded at a concentration of 1×10^5 cells/ml in a volume of 0.1 ml in 96-well plates, and allowed to adhere in a complete growth media overnight. The media was then removed and the cells were washed twice in serum-free, RPMI-1650 media, before adding LTX-315 dissolved in serum-free RPMI at concentrations ranging from 2.5-300 μg/ml, and incubated for 5-180 minutes. Cells treated with a serum-free RPMI were used as negative control cells, while cells treated with 1% Triton X-100 in serum-free media were used as a positive control. The final results were calculated using the mean of three experiments, each with triplicate wells.

[2] = Group 1: 1 mg intratumoural once daily days 1,2,3
[3] = Group 2: 0.5 mg intratumoural once daily days 1,2,3
[4] = Group 3: 0.25 mg intratumoural once daily days 1,2,3

`NCCCC[C@H](NC(=O)[C@@H](NC(=O)[C@H](Cc1c[nH]c2ccccc12)NC(=O)[C@H](CCCCN)NC(=O)[C@H](CCCCN)NC(=O)[C@H](Cc1c[nH]c2ccccc12)NC(=O)[C@H](Cc1c[nH]c2ccccc12)NC(=O)[C@H](CCCCN)NC(=O)[C@@H](N)CCCCN)C(c1ccccc1)c1ccccc1)C(N)=O` [LTX-315, K-K-W-W-K-K-W-Dip-K-NH2] (H-KKWWKKW[Dip]K-NH2) was tested, and the “Resistance index (RI), MCF-7/mdr” value (MCF-7/mdr) was 1.12, the “Anti-tumour effect” value ([1]; 1 mg and 0.5 mg, first period of the study) was “strong and rapid anti tumour effect” and the “Mean tumour size on day 4” value [1, 2] was 0 mm^2. For the same compound, the “Mean tumour size on day 9” value [1, 2] was 3.70 ± 2.40 mm^2, the “Mean tumour size on day 14” value [1, 2] was 12.43 ± 7.87 mm^2 and the “Mean tumour size at day 1” value [1, 2] was 25.82 ± 0.80 mm^2. The “Free of Tumour at end of Follow-Up” value ([1]; Group 1: 1 mg x3, n=7) was 42.8% (3/7), the “Relapse of Tumour” value ([1]; Group 1: 1 mg x3, n=7) was 25% and the “Tumour Response: complete response” value ([1]; Group 1: 1 mg x3, n=7) was 57.2% (4/7). For the same compound, the “Tumour Response: no response” value ([1]; Group 1: 1 mg x3, n=7) was 0%, the “Tumour Response: partial response” value ([1]; Group 1: 1 mg x3, n=7) was 42.8% (3/7) and the “Mean tumour size on day 4” value [1, 3] was 0 mm^2. The “Mean tumour size on day 9” value [1, 3] was 11.41 ± 4.69 mm^2, the “Mean tumour size on day 14” value [1, 3] was 61.08 ± 23.84 mm^2 and the “Mean tumour size at day 1” value [1, 3] was 22.03 ± 0.63 mm^2. The “Free of Tumour at end of Follow-Up” value ([1]; Group 2: 0.5 mg x3, n=7) was 28.57% (2/7), the “Relapse of Tumour” value ([1]; Group 2: 0.5 mg x3, n=7) was 0% (0/2) and the “Tumour Response: complete response” value ([1]; Group 2: 0.5 mg x3, n=7) was 28.57% (2/7). The “Tumour Response: no response” value ([1]; Group 2: 0.5 mg x3, n=7) was 0%, the “Tumour Response: partial response” value ([1]; Group 2: 0.5 mg x3, n=7) was 71.42% and the “Anti-tumour effect” value ([1]; Group 3, 0.25 mg/dose, first days) was “a small inhibitory effect is observed during the first days”. For the same compound, the “Mean tumour size on day 4” value [1, 4] was 20.60 ± 5.71 mm^2, the “Mean tumour size on day 9” value [1, 4] was 68.49 ± 12.74 mm^2 and the “Mean tumour size on day 14” value [1, 4] was 69.42 ± 17.70 mm^2. For the same compound, the “Mean tumour size at day 1” value [1, 4] was 21.25 ± 0.64 mm^2, the “Free of Tumour at end of Follow-Up” value ([1]; Group 3: 0.25 mg x3, n=9) was 0% and the “Tumour Response: complete response” value ([1]; Group 3: 0.25 mg x3, n=9) was 0% (0/9). The “Tumour Response: no response” value ([1]; Group 3: 0.25 mg x3, n=9) was 77.77%, the “Tumour Response: partial response” value ([1]; Group 3: 0.25 mg x3, n=9) was 22.22% and the “Adverse events or toxic effects” value ([1]; all LTX-315 groups, intratumoural) was “Except from the wound formation no other adverse events or toxic effects were observed”. For the same compound, the “Treated mice with complete tumour response” value ([1]; optimal dose, Group 1 (1 mg x3)) was 3 of 7, the IC50 (A375 cells; 90 minutes of incubation) was 14 µM and the IC50 (A375 cells; five minutes of incubation) was 30 µM.
